Data on 14 molecules can be found in patent US11234979B2, “Heteroaryl compounds as muscarinic M1 receptor positive allosteric modulators” (SUVEN LIFE SCIENCES LIMITED, priority 2017, dated 2022).

For the experiment, the target named is T1, recombinant human Muscarinic M1 receptor (Homo sapiens, UniProt P11229).
T1 construct: expressed in transfected cells
T1 sequence (P11229 1-460): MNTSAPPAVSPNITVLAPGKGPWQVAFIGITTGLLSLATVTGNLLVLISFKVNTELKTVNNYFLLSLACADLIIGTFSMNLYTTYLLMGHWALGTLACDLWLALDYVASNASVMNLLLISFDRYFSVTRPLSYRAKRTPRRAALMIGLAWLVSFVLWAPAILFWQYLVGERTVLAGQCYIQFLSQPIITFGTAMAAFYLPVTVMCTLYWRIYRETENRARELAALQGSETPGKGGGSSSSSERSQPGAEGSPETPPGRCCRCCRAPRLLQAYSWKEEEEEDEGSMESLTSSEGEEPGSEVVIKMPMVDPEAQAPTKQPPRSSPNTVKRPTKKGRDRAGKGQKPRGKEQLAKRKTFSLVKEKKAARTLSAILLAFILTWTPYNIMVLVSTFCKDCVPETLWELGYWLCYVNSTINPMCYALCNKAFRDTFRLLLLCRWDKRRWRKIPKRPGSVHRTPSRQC
The experiment can be described thus: Allosteric potency EC50 for Muscarinic M1 receptor, CHO pCRE-Luc reporter assay with EC20 of acetylcholine. The class given is cell-based. The settings on record: CHO cells, in presence of EC20 of acetylcholine, 4 hours. How it is done:
Determination of Allosteric Potency EC50 Values for Muscarinic M1 Receptor:
A stable CHO cell line expressing recombinant human Muscarinic M1 receptor and pCRE-Luc reporter system was used for cell-based assay. The assay offers a non-radioactive based approach to determine binding of a compound to GPCRs. In this specific assay, the level of intracellular cyclic AMP which is modulated by activation or inhibition of the receptor is measured. The recombinant cells harbor luciferase reporter gene under the control of cAMP response element.
The above cells were grown in 96 well clear bottom white plates in Hams F12 medium containing 10% fetal bovine serum (FBS). Prior to the addition of compounds or standard agonist, cells were serum starved overnight. Increasing concentrations of test compounds were added along with EC20 of acetylcholine in OptiMEM medium to the cells. The incubation was continued at 37° C. in CO2 incubator for 4 hours. Medium was removed and cells were washed with phosphate buffered saline. The cells were lysed and luciferase activity was measured in a Luminometer. Luminescence counts in each concentrations of test item were normalized to the acetylcholine induced maximum response and the data was analyzed using Graphpad software. EC50 values of the compounds were defined as the concentration required in stimulating the luciferase activity by 50% in presence of EC20 of acetylcholine.
(In a reporter assay the amount or activity of a reporter protein is the signal.)
`O=C(N[C@H]1CCCC[C@@H]1O)c1cc(Cc2cccc(F)c2F)c2cccnn12` [Example 9, N-(cis-1S,2S-2-Hydroxycyclohexyl)-5-(2,3-difluorobenzyl)-pyrrolo[1,2-b]pyridazine-7-carboxamide]: the EC50 came to 2110 nM.

As for `Cn1cc(-c2cc(Cc3cc(C(=O)N[C@H]4CCCC[C@@H]4O)n4ncccc34)ccc2F)cn1` [Example 37, N-(cis-1S,2S-2-Hydroxycyclohexyl)-5-[4-fluoro-3-(1-methyl-1H-pyrazol-4-yl)-benzyl]-pyrrolo[1,2-b]pyridazine-7-carboxamide], the EC50 was determined as 1000 nM.

In the case of `O=C(N[C@H]1CCCC[C@@H]1O)c1cc(Cc2ccc(Cl)nc2)c2cccnn12` [Example 16, N-(cis-1S,2S-2-Hydroxycyclohexyl)-5-(2-chloro-pyridin-5-ylmethyl)-pyrrolo[1,2-b]pyridazine-7-carboxamide], the concentration for a half-maximal effect (EC50) stood at 2760 nM.

In the case of `O=C(N[C@H]1CCCC[C@@H]1O)c1cc(Cc2cccnc2Cl)c2cccnn12` [Example 28, N-(cis-1S,2S-2-Hydroxycyclohexyl)-5-(2-chloropyridin-3-ylmethyl)-pyrrolo[1,2-b]pyridazine-7-carboxamide], the EC50 amounted to 10000 nM.

As for `O=C(N[C@H]1CCCC[C@@H]1O)c1cc(Cc2ccc(Br)nc2)c2cccnn12` [Example 5, N-(cis-1S,2S-2-Hydroxycyclohexyl)-5-(2-bromo-pyridin-5-ylmethyl)-pyrrolo[1,2-b]pyridazine-7-carboxamide], the EC50 worked out at 2130 nM.

For `COc1cccc(Cc2cc(C(=O)N[C@H]3CCCC[C@@H]3O)n3ncccc23)c1F` [Example 18, N-(cis-1S,2S-2-Hydroxycyclohexyl)-5-(2-fluoro-3-methoxybenzyl)-pyrrolo[1,2-b]pyridazine-7-carboxamide], the concentration giving a half-maximal response (EC50) is 3720 nM.

On to `O=C(N[C@H]1CCCC[C@@H]1O)c1cc(Cc2ccc(-c3cscn3)cc2)c2cccnn12` [Example 23, N-(cis-1S,2S-2-Hydroxycyclohexyl)-5-(4-thiazol-4-ylbenzyl)-pyrrolo[1,2-b]pyridazine-7-carboxamide], for which the EC50 turned out to be 119 nM.

Take `O=C(N[C@H]1CCCC[C@@H]1O)c1cc(Cc2ccc(Br)cc2)c2cccnn12` [Example 1, N-(cis-1S,2S-2-Hydroxycyclohexyl)-5-(4-bromobenzyl)-pyrrolo[1,2-b]pyridazine-7-carboxamide]: the EC50 came out at 1470 nM.

Take `O=C(N[C@H]1CCCC[C@@H]1O)c1cc(Cc2ccccc2)n2cccc(F)c12` [Example 42, N-(cis-1S,2S-2-Hydroxycyclohexyl)-3-benzyl-8-fluoroindolizine-1-carboxamide]: the concentration giving a half-maximal response (EC50) came to 1130 nM.

Turning to `O=C(N[C@H]1CCCC[C@@H]1O)c1cc(Cc2ccc(-c3cscn3)cc2)n2cccc(F)c12` [Example 45, N-(cis-1S,2S-2-Hydroxycyclohexyl)-3-(4-thiazol-4-yl-benzyl)-8-fluoroindolizine-1-carboxamide], the EC50 was 3190 nM.

On to `O=C(N[C@H]1CCCC[C@@H]1O)c1cc(Cc2ccnc(Cl)c2)n2cccc(F)c12` [Example 43, N-(cis-1S,2S-2-Hydroxycyclohexyl)-3-(2-chloropyridine-4-ylmethyl)-8-fluoroindolizine-1-carboxamide], for which the EC50 turned out to be 2060 nM.

`O=C(N[C@H]1CCCC[C@@H]1O)c1cc(Cc2ccc(F)c(Br)c2)c2cccnn12` [Example 26, N-(cis-1S,2S-2-Hydroxycyclohexyl)-5-(3-bromo-4-fluorobenzyl)-pyrrolo[1,2-b]pyridazine-7-carboxamide]: the EC50 is 643 nM.

For `Cn1cc(-c2ccc(Cc3cc(C(=O)NC4CCOCC4O)n4ncccc34)cc2)cn1` (centres unmarked) [Example 39, N-(3-Hydroxytetrahydropyran-4-yl)-5-[4-(1-methyl-1H-pyrazol-4-yl)-benzyl]-pyrrolo[1,2-b]pyridazine-7-carboxamide], the EC50 is 291 nM.

For `COc1ccc(Cc2cc(C(=O)N[C@H]3CCCC[C@@H]3O)n3ncccc23)cc1F` [Example 10, N-(cis-1S,2S-2-Hydroxycyclohexyl)-5-(3-fluoro-4-methoxybenzyl)-pyrrolo[1,2-b]pyridazine-7-carboxamide], the EC50 was 1220 nM.

As a reminder, the EC50 is the concentration giving half of the maximal effect.
